A value given as a limit tells only on which side of the number the result lay.

These results are taken from patent publication US20250034165A1, “COMPOUND CONTAINING CYCLOALKYL OR HALOALKYL” (CHIA TAI TIANQING PHARMACEUTICAL GROUP CO., LTD., priority 2021, published 2025).

In data set [1] the test system is BAF3-EGFR (L858R/T790M/C797S) cells. The data set can be described thus: Inhibition of proliferation of BAF3-EGFR (L858R/T790M/C797S) cells, CCK-8. The data set is classed as cell-based. Conditions: Ba/F3 EGFR, 72 h, read-out: BAF3(EGFR T790M L858R C797S) cell inhibitory activity IC50. In outline:
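BaF3 EGFR L858R/T790M/C797S cells seeded at 1.5×10^5 cells/mL in RPMI + 10% FBS, 37 °C, compound added after overnight, duplicates. Viability by CCK-8; % inhibition vs untreated and blank, IC50 by four-parameter fit.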

The test system of data set [2] is BAF3-EGFR (del19/T790M/C797S) cells. The data set can be described thus: Inhibition of proliferation of BAF3-EGFR (Del19/T790M/C797S) cells, CCK-8. In kind it is cell-based. Conditions: Ba/F3 EGFR-Del19/T790M/C797S, 72 h, read-out: BAF3(EGFR T790M Del19 C797S) cell inhibitory activity IC50. A digest of the protocol: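 Cells seeded at 1.0×10^5 cells/mL in RPMI + 10% FBS, cultured overnight at 37° C, 5% CO2, then compound added in duplicate wells, with untreated cells as negative control. Inhibition rate calculated against negative-control and blank means. IC50 obtained from four-parameter fit of inhibition versus log concentration.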

The test system of the next data set is NCI-H1975(L858R T790M). Kind of data set: Nude mouse subcutaneous xenograft tumor model of NCI-H1975 cells. Conditions: once a day, 14 days. The data set is classed as in vivo, nude mice. An excerpt: Evaluation on drug effect on nude mouse subcutaneous xenograft tumor model of NCI-H1975 cells: NCI-H1975 cells were inoculated subcutaneously in the right axilla of SPF-grade female nude mice (source: Jiangsu Huachuang Sino Pharmaceutical Technology Co., Ltd.) at 1×10^6 cells/mouse. When the mean tumor volume reached about 200 mm^3, the animals were grouped.
(§1) The day of grouping was defined as day 0, and intragastric administration was started on day 0 and performed once a day. The tumor volume was measured 2-3 times a week, meanwhile, the mice were weighed and the data were recorded; the general behavior of the mice was observed and recorded every day. After the experiment was completed, the tumors were removed, weighed, and photographed.
(§2) Tumor volume TV (mm^3)=½×(a×b^2),
(§3) Relative tumor volume RTV=TVt/TV0,
(§4) Relative tumor proliferation rate T/C (%)=(TRTV/CRTV)×100%,
(§5) Tumor growth inhibition rate TGI (%)=(1−TW/TW0)×100%;

In data set [3] the target is EGFR (d746-750 (d19)/T790M) (Homo sapiens (Human), UniProt P00533, DEL746-750/T790M). The data set can be described thus: Inhibitory activity for EGFR (d746-750 (d19)/T790M) kinase. The data set is classed as biochemical. Conditions: ATP 5 μM. A digest of the protocol: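 Recombinant EGFR d746-750/T790M (0.003 ng/μL final) preincubated 30 min with compound (10 to 0.0024 nM, 4-fold steps), then 5 μM ATP and 0.1 μM ULight-poly GT added for 2 h at room temperature. EDTA stop, Eu-anti-phosphotyrosine TR-FRET read (665 nm); IC50 by four-parameter fit.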
Chain of EGFR (d746-750 (d19)/T790M) (P00533 other isoform, or with tags, fused parts or gaps T790M/del 1-668/del 746-750 limits assumed): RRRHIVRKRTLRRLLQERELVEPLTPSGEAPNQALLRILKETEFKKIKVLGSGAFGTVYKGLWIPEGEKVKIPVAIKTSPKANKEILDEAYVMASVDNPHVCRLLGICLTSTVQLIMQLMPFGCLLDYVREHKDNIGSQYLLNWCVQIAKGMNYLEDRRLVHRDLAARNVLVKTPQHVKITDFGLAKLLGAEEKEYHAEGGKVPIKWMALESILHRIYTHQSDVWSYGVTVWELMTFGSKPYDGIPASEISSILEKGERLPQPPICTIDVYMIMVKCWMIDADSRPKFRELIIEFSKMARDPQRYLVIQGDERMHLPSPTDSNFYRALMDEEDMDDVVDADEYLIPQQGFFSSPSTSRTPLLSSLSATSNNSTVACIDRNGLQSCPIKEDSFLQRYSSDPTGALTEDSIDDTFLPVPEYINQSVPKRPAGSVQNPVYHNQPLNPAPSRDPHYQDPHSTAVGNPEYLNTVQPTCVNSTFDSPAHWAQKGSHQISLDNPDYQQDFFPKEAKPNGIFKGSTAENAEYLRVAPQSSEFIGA

The test system of data set [4] is PC-9 EGFR-Del19-T790M-C797S cells. Kind of data set: Inhibition of proliferation of PC-9-EGFR (Del19 T790M C797S) cells, CCK-8. In kind it is cell-based. Conditions: 72 h, read-out: PC-9-EGFR (Del19 T790M C797S) cell inhibitory activity IC50. A digest of the protocol:
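Cells seeded at 2×10^4 cells/mL were treated 72 h with compound at 1000 nM-0.06 nM final, in replicate wells. CCK-8 absorbance at 450 nm after 2 h gave inhibition rate relative to negative control and blank. IC50 from four-parameter fit against log concentration.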

Data set [5] addresses EGFR (d746-750/T790M/C797S) (Homo sapiens (Human), UniProt P00533, C797S/DEL746-750/T790M). Kind of data set: Inhibitory activity for EGFR (d746-750/T790M/C797S) kinase. The data set is classed as biochemical. Particulars: ATP 5 μM; read-out: EGFR(d19/T790M/C797S) (IC50). A digest of the protocol: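 EGFR d746-750/T790M/C797S (0.03 ng/μL final) preincubated 30 min with compound (10 nM–0.0024 nM, 4-fold, 7 points). Reaction with 5 μM ATP and 0.1 μM ULight-poly GT, 2 h at room temperature; EDTA stop, Eu-anti-phosphotyrosine TR-FRET read at 665 nm, IC50 by four-parameter fit.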

The test system of data set [6] is PC9-EGFR (del19-T790M-C797S). The data set can be described thus: Nude mouse subcutaneous xenograft tumor model of PC9-EGFR (del19-T790M-C797S) tumor mass. In kind it is in vivo, nude mice.
Source text: Evaluation on drug effect on nude mouse subcutaneous xenograft tumor model of PC9-EGFR (del19-T790M-C797S) tumor mass: PC9-EGFR (del19-T790M-C797S) cells were inoculated subcutaneously in the right axilla of SPF-grade female nude mice (source: Laboratory Animal Operation Department, Shanghai Institute for Biomedical and Pharmaceutical Technologies) at 1×10^7 cells/mouse for the F1 generation. The nude mouse tumor tissue of the F1 generation was taken out, and the necrotic tissue was removed. Then the rest of the tumor tissue was cut into tumor masses of about 1.5-2 mm and inoculated subcutaneously in the right axilla of the nude mice. When the mean tumor volume reached about 200 mm^3, the animals were grouped.
as §1, §2, §3, §4, §5

Data set [7] is described as follows: In vivo pharmacokinetics in ICR mice. Conditions: mouse, plasma, PO, 10 mg/kg intragastric. A digest of the protocol: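 ICR mice (18–20 g, 9 per group, fasted 12 h) received 10 mg/kg of compound intragastrically. Orbital blood was taken from 0 min to 24 h and EDTA-K2 plasma was prepared. Plasma was precipitated with acetonitrile containing diazepam as internal standard and analysed by LC/MS/MS.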

Data set [8] can be described thus: In vitro stability in liver microsomes. In kind it is in vitro ADME. Conditions: Human liver microsome. As for the experimental part:
300 μL of the final incubation system contains 30 μL of liver microsomes (protein concentration: 0.15 mg/mL), 30 μL of NADPH+MgCl2, 3 μL of the test compound (in acetonitrile), and 237 μL of PBS buffer (pH 7.4). The proportion of the organic solvent (acetonitrile) was 1%. Samples were prepared in duplicate of 0.3 mL for each species (e.g., human or mouse liver microsomes). Tubes each containing 270 μL of a mixed solution of substrate and enzyme […] were pre-incubated at 37° C. for 5 min. 30 μL of NADPH+MgCl2 was added and the mixture was mixed. 50 μL of the mixture was taken at 0 min, 15 min, 30 min, and 60 min, and 300 μL of glacial acetonitrile containing an internal standard was added to terminate the reaction.
50 μL of the incubated sample was added with 300 μL of glacial acetonitrile containing an internal standard (20 ng/mL diazepam) for precipitation. The mixture was vortexed for 5 min, and centrifuged (12,000 rpm, 4° C.) for 10 min. 75 μL of supernatant was taken and diluted with 75 μL of ultrapure water. After being homogeneously mixed, 0.5 μL of the resulting sample was injected for analysis.

Setting [9] is: 15 mpk*4 + 10 mpk*25 (i.g), 29 days.

Chain of EGFR (d746-750/T790M/C797S) (P00533 other isoform, or with tags, fused parts or gaps T790M/C797S/del 1-694/del 746-750 limits assumed): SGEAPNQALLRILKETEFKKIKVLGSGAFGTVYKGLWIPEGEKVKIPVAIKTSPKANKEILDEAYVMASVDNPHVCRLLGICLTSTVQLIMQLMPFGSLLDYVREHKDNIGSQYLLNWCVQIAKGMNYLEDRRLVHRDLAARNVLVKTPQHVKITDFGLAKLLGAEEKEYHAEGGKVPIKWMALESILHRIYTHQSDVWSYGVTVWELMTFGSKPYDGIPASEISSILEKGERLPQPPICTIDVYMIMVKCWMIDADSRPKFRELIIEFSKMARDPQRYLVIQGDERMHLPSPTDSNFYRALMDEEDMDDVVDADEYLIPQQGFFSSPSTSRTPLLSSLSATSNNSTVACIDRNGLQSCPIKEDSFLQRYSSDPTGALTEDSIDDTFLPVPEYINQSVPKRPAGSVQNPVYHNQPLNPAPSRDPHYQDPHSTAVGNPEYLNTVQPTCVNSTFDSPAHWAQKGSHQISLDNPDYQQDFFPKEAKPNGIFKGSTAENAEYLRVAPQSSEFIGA

As to `Cc1cc2cc(n1)-c1cnn(C)c1OCCC[C@@H](C1CC1)CN1/C(=N/C2=O)Nc2ccc(N(C)CCN(C)C)cc21` [Example 45], the IC50 in data set [1] was less than 5 nM; in data set [2], less than 1 nM; in [3], 0.013 nM; in data set [4] it was less than 50 nM; in data set [5], 0.018 nM. Further, the “Tumor growth inhibition % (tumor weight, d 14)” value in the data set on NCI-H1975(L858R T790M) (10 mpk (i.g)) is reported as 76.2% (tumor. In addition, the “Tumor growth inhibition % (volume, d 12)” value in the data set with NCI-H1975(L858R T790M) (10 mpk (i.g)) is reported as 76.6%.

`Cc1cc2cc(n1)-c1cnn(C)c1OCCC[C@@H](C1CC1)CN1/C(=N/C2=O)Nc2ccc(N[C@@H](C)CN(C)C)cc21` [Example 66]: the “Tumor growth inhibition % (tumor weight, d 29)” value in data set [6] (setting [9]) is listed as 95.8% (tumor weight, d 29); in [6] (30 mpk*4 (i.g), 4 days) it was 56.5%. Moreover, the “Tumor growth inhibition % (volume, d 27)” value is 94.3% (volume, d 27) in data set [6] (setting [9]) and 60.0% (volume, d 27) in data set [6] (30 mpk*4 (i.g), 4 days). In data set [7], this compound gave an AUC(0-inf) of 2200 ng·h/mL. Further, in data set [7] (read-out: AUC(0-t)), the AUC(0-t) came out at 2040 ng·h/mL. Further, in data set [7] (read-out: Cmax), the Cmax turned out to be 143 ng/mL. The MRT last in data set [7] (read-out: MRT(0-t)) was 8.26 h. Further, the time to peak (Tmax) in [7] (read-out: Tmax) was 6 h. In addition, the half-life in data set [7] (read-out: T½ (converted)) was 5.98 h. The IC50 in [1] is less than 5 nM; in [2] it was less than 1 nM; in [4], less than 50 nM. The “Tumor growth inhibition % (tumor weight, d 14)” value with NCI-H1975(L858R T790M) (5 mpk (i.g)) is 73.5% (tumor; with NCI-H1975(L858R T790M) (10 mpk (i.g)) it was 87.5% (tumor. Further, the figures for the “Tumor growth inhibition % (volume, d 12)” value in the data set with NCI-H1975(L858R T790M) (5 mpk (i.g)) and in the data set with NCI-H1975(L858R T790M) (10 mpk (i.g)) were 71.3% and 86.2%, respectively.

Regarding `Cc1cc2cc(n1)-c1cnn(C)c1OCCC[C@@H](C1CC1)CN1/C(=N/C2=O)Nc2cc(NCCCN(C)C)ccc21` [Example 44], the IC50 is less than 5 nM in data set [1]; less than 1 nM in [2]; 0.0081 nM in [3]; less than 50 nM in [4]; 0.012 nM in [5]. In data set [8], the “Stability in liver microsomes (residual %, T = 60 min)” value is 80.24%.
